From ChEMBL document CHEMBL4507276 (2021)

Tests used:
[1] = target: T1, Mitogen-activated protein kinase kinase kinase 7 (Homo sapiens) (UniProt O43318); conditions: Compound concentration 1000.0 nM
T1 sequence (whole entry): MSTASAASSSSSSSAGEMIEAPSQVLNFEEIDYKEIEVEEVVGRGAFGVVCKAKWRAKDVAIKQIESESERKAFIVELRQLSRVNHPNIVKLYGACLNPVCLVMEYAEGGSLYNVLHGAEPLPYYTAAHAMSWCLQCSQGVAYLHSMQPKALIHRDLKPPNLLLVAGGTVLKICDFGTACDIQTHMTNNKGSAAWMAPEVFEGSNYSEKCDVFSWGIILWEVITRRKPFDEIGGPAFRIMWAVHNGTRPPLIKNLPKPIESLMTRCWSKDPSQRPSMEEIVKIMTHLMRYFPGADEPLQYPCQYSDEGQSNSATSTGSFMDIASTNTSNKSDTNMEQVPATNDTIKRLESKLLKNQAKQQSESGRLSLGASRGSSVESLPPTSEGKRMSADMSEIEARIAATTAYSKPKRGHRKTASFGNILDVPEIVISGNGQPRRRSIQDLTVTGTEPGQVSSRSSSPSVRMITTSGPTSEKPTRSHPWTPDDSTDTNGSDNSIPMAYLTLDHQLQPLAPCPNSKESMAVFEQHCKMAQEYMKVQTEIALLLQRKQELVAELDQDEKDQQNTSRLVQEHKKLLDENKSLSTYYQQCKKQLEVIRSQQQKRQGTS

[2] = target: Phosphatidylinositol 5-phosphate 4-kinase type-2 beta (Homo sapiens) (UniProt P78356); conditions: Compound concentration 1000.0 nM
Sequence of Phosphatidylinositol 5-phosphate 4-kinase type-2 beta (Homo sapiens) (P78356 whole entry): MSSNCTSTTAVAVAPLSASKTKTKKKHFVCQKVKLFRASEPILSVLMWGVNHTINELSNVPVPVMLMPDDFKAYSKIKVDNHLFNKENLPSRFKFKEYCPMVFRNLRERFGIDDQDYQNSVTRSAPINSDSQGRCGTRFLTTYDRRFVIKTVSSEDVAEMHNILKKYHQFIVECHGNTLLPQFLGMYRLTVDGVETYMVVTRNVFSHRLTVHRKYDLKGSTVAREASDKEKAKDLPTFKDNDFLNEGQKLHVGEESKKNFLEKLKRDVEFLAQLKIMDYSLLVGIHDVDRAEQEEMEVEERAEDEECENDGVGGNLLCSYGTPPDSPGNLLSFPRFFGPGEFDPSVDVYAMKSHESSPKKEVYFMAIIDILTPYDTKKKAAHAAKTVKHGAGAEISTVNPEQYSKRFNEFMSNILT

[3] = target: Kappa-type opioid receptor (Homo sapiens) (UniProt P41145); conditions: Compound concentration 10.0 uM
Sequence of Kappa-type opioid receptor (Homo sapiens) (P41145 whole entry): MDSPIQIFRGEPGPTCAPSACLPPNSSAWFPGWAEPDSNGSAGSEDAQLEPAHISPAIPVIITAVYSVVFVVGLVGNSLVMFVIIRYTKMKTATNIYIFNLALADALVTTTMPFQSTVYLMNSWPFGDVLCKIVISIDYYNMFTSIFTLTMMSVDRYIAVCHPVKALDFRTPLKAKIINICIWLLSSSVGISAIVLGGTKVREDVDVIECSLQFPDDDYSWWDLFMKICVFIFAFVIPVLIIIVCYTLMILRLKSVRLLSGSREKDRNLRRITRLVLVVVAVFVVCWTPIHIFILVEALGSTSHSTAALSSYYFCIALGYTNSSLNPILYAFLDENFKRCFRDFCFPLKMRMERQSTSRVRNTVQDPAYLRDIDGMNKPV

[4] = target: Mitogen-activated protein kinase 1 (Homo sapiens) (UniProt P28482); conditions: Compound concentration 1000.0 nM
[5] = target: Delta-type opioid receptor (Homo sapiens) (UniProt P41143); conditions: Compound concentration 10.0 uM
[6] = target: Death-associated protein kinase 1 (Homo sapiens) (UniProt P53355); conditions: Compound concentration 1000.0 nM
[7] = target: Receptor-interacting serine/threonine-protein kinase 2 (Homo sapiens) (UniProt O43353); conditions: Compound concentration 1000.0 nM
Sequence of Receptor-interacting serine/threonine-protein kinase 2 (Homo sapiens) (O43353 whole entry): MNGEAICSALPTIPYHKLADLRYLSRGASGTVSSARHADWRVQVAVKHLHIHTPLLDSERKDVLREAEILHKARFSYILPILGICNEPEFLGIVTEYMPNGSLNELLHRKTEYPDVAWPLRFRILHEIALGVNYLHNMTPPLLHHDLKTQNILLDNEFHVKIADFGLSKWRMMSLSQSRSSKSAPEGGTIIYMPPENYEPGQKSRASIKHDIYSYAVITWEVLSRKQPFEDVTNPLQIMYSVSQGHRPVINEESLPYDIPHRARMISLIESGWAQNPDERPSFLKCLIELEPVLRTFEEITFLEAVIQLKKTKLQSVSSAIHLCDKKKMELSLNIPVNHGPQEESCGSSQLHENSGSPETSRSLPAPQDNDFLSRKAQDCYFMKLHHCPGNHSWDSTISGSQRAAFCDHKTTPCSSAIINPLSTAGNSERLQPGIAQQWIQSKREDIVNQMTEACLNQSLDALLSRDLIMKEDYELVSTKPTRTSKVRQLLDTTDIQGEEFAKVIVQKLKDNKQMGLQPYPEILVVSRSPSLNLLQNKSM

[8] = target: Activin receptor type-2A (Homo sapiens) (UniProt P27037); conditions: Compound concentration 1000.0 nM
[9] = system: Mast/stem cell growth factor receptor Kit (Homo sapiens), P10721 [L576P]; conditions: Compound concentration 1000.0 nM
Sequence of Mast/stem cell growth factor receptor Kit (Homo sapiens), P10721 [L576P] (P10721 whole entry L576P): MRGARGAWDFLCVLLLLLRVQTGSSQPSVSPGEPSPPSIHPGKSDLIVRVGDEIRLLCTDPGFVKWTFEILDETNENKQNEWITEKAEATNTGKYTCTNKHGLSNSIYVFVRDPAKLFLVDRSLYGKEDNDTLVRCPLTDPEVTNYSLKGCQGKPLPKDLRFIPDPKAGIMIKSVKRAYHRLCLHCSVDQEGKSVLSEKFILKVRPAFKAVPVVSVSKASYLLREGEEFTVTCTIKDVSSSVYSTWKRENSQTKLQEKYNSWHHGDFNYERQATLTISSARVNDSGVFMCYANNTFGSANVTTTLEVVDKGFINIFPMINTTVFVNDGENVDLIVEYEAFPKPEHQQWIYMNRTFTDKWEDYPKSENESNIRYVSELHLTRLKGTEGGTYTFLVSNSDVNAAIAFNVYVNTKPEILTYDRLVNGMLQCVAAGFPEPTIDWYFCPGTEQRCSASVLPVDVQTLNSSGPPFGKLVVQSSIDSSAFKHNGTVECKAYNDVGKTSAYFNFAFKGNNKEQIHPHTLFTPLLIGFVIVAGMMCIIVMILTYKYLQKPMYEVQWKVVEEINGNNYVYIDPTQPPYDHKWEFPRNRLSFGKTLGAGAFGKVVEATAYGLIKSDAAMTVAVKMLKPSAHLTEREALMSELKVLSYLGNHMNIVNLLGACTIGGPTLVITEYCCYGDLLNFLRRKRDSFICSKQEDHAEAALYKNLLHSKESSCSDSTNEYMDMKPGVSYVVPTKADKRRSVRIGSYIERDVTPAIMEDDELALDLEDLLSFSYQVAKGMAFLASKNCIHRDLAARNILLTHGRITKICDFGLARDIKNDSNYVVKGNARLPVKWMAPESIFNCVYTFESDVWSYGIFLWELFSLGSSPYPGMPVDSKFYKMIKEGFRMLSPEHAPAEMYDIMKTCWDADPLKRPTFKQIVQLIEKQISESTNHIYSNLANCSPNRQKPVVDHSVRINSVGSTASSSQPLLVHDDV

[10] = target: Myosin light chain kinase family member 4 (Homo sapiens) (UniProt Q86YV6); conditions: Compound concentration 1000.0 nM
Sequence of Myosin light chain kinase family member 4 (Homo sapiens) (Q86YV6 whole entry): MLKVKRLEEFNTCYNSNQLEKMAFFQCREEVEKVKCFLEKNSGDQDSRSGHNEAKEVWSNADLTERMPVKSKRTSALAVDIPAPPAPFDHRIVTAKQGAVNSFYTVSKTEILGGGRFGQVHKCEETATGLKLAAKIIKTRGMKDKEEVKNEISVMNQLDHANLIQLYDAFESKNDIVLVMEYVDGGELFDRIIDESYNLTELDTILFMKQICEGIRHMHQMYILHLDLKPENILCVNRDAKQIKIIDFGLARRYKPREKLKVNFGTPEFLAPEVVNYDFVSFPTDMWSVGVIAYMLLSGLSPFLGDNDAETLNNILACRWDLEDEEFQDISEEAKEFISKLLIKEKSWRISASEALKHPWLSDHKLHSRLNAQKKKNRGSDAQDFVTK

[11] = target: Serine/threonine-protein kinase SIK3 (Homo sapiens) (UniProt Q9Y2K2); conditions: Compound concentration 1000.0 nM
[12] = target: Phosphatidylinositol 5-phosphate 4-kinase type-2 gamma (Homo sapiens) (UniProt Q8TBX8); conditions: Compound concentration 1000.0 nM
[13] = target: Mitogen-activated protein kinase kinase kinase 15 (Homo sapiens) (UniProt Q6ZN16); conditions: Compound concentration 1000.0 nM
[14] = target: Phosphatidylinositol 4-phosphate 3-kinase C2 domain-containing subunit beta (Homo sapiens) (UniProt O00750); conditions: Compound concentration 1000.0 nM
[15] = target: Protein-tyrosine kinase 2-beta (Homo sapiens) (UniProt Q14289); conditions: Compound concentration 1000.0 nM
Sequence of Protein-tyrosine kinase 2-beta (Homo sapiens) (Q14289 whole entry, looked up): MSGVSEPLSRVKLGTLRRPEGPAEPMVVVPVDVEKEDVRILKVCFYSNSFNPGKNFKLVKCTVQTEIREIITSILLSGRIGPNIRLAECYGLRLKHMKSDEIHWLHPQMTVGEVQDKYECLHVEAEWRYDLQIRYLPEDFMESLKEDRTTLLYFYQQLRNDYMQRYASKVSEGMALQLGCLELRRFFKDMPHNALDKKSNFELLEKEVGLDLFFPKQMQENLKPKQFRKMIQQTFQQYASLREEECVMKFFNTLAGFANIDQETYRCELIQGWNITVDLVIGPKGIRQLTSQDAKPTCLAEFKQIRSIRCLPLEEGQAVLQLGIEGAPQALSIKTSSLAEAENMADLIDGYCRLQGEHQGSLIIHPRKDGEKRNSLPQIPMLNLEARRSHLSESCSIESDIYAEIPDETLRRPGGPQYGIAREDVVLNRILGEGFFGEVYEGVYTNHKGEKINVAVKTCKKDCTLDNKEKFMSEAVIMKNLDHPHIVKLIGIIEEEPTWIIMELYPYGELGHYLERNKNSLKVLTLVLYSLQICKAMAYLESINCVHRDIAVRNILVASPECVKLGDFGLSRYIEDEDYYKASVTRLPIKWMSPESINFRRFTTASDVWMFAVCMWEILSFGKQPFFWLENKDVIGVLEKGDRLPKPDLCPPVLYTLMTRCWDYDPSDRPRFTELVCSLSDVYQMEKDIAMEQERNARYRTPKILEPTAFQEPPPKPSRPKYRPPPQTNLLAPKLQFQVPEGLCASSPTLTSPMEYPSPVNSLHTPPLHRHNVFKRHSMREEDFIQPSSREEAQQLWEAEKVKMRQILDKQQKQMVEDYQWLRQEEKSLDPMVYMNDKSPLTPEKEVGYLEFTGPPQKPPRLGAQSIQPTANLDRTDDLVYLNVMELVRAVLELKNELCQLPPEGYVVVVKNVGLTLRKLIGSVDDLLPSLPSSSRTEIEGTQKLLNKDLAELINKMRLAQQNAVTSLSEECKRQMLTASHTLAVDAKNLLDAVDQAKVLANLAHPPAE

[16] = target: Interferon-induced, double-stranded RNA-activated protein kinase (Homo sapiens) (UniProt P19525); conditions: Compound concentration 1000.0 nM
[17] = target: Serine/threonine-protein kinase PAK 6 (Homo sapiens) (UniProt Q9NQU5); conditions: Compound concentration 1000.0 nM
[18] = target: Cyclin-dependent kinase 16 (Homo sapiens) (UniProt Q00536); conditions: Compound concentration 1000.0 nM
[19] = target: Casein kinase I isoform alpha (Homo sapiens) (UniProt P48729); conditions: Compound concentration 1000.0 nM
[20] = target: T2, Tyrosine-protein kinase ITK/TSK (Homo sapiens) (UniProt Q08881); conditions: Compound concentration 1000.0 nM
T2 sequence (whole entry): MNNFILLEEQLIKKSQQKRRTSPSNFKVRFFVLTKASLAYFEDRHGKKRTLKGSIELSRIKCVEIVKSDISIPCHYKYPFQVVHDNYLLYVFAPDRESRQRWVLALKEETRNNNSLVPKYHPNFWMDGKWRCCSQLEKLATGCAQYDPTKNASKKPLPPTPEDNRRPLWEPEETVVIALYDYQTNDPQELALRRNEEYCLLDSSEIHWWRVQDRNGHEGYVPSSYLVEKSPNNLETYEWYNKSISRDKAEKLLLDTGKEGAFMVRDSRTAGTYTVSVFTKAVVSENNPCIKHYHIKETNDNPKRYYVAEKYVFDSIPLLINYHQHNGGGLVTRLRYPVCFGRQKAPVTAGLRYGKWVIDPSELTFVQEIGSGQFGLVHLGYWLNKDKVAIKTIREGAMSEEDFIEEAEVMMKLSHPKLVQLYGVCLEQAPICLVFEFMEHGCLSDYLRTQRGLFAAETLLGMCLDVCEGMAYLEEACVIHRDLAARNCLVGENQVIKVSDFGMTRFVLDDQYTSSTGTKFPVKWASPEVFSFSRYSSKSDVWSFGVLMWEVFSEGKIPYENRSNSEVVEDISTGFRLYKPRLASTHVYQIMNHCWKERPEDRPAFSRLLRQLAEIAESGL

[21] = target: Mitogen-activated protein kinase kinase kinase kinase 5 (Homo sapiens) (UniProt Q9Y4K4); conditions: Compound concentration 1000.0 nM
[22] = target: cAMP-dependent protein kinase catalytic subunit beta (Homo sapiens) (UniProt P22694); conditions: Compound concentration 1000.0 nM
[23] = target: Serine/threonine-protein kinase tousled-like 1 (Homo sapiens) (UniProt Q9UKI8); conditions: Compound concentration 1000.0 nM
Sequence of Serine/threonine-protein kinase tousled-like 1 (Homo sapiens) (Q9UKI8 whole entry): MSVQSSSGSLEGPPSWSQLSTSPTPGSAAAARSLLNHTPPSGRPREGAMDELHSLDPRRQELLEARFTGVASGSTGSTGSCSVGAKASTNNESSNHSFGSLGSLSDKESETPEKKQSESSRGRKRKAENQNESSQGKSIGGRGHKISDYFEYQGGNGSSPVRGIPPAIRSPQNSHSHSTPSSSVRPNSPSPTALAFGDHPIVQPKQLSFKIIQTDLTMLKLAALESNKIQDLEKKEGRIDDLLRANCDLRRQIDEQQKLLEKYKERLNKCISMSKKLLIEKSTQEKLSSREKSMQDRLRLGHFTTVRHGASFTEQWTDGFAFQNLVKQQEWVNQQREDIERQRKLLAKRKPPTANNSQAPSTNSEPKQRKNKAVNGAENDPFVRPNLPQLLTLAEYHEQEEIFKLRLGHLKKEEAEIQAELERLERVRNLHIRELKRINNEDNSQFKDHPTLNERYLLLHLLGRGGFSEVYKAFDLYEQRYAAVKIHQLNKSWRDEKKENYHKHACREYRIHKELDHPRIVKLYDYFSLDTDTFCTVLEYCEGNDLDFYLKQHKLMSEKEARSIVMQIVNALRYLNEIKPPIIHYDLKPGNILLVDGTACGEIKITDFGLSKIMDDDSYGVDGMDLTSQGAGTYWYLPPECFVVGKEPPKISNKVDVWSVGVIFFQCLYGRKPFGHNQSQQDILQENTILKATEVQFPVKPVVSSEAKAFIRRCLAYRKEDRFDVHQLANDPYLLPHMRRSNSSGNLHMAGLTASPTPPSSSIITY

[24] = system: Epidermal growth factor receptor (Homo sapiens), P00533 [UNDEFINED MUTATION]; conditions: Compound concentration 1000.0 nM
[25] = system: Receptor-type tyrosine-protein kinase FLT3 (Homo sapiens), P36888 [UNDEFINED MUTATION]; conditions: Compound concentration 1000.0 nM
[26] = system: Tyrosine-protein kinase ABL1 (Homo sapiens), P00519 [T315I]; conditions: Compound concentration 1000.0 nM
[27] = target: Tyrosine-protein kinase Yes (Homo sapiens) (UniProt P07947); conditions: Compound concentration 1000.0 nM
Sequence of Tyrosine-protein kinase Yes (Homo sapiens) (P07947 2-543 limits assumed): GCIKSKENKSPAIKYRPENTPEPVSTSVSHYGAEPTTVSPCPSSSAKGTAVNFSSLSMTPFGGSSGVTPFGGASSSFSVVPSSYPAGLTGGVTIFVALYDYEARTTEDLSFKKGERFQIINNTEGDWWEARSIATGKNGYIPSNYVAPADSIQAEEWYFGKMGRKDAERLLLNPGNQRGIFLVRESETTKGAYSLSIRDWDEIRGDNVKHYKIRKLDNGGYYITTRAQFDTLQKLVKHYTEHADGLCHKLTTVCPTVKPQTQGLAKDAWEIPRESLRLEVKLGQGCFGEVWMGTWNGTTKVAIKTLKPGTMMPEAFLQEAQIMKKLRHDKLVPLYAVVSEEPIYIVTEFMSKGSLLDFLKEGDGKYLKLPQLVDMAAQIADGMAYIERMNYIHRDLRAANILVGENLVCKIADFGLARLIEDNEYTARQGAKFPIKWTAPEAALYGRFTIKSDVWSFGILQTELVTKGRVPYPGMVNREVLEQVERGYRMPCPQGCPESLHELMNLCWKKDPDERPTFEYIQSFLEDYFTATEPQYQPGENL

[28] = target: Eukaryotic translation initiation factor 2-alpha kinase 1 (Homo sapiens) (UniProt Q9BQI3); conditions: Compound concentration 1000.0 nM

CN(C)C(=O)Cn1cc(-c2nc(C3(c4ccc(-c5cnc(N)nc5)cc4)CC3)no2)cn1 [BI 0153]
inactive: residual activity [1] 72% | residual activity [2] 71% | inhibition [3] 16.2% | residual activity [4] 81% | inhibition [5] -5.53% | residual activity [6] 100% | residual activity [7] 100% | residual activity [8] 84% | residual activity [9] 84% | residual activity [10] 100% | residual activity [11] 100% | residual activity [12] 100% | residual activity [13] 100% | residual activity [14] 100% | residual activity [15] 90% | residual activity [16] 100% | residual activity [17] 100% | residual activity [18] 80% | residual activity [19] 62% | residual activity [20] 92% | residual activity [21] 89% | residual activity [22] 86% | residual activity [23] 100% | residual activity [24] 79% | residual activity [25] 89% | residual activity [26] 100% | residual activity [27] 87% | residual activity [28] 88%

CN(C)C(=O)Cn1cc(-c2nc([C@@](C)(c3ccc(-c4cnc(N)nc4)cc3)C3CC3)no2)cn1 [BI 665915]
inactive: residual activity [1] 50% | residual activity [2] 100% | inhibition [3] 33.9% | residual activity [4] 100% | inhibition [5] -7.13% | residual activity [6] 82% | residual activity [7] 87% | residual activity [8] 81% | residual activity [9] 63% | residual activity [10] 100% | residual activity [11] 70% | residual activity [12] 100% | residual activity [13] 99% | residual activity [14] 96% | residual activity [15] 87% | residual activity [16] 100% | residual activity [17] 100% | residual activity [18] 86% | residual activity [19] 100% | residual activity [20] 99% | residual activity [21] 86% | residual activity [22] 100% | residual activity [23] 100% | residual activity [24] 75% | residual activity [25] 62% | residual activity [26] 90% | residual activity [27] 94% | residual activity [28] 96%
